Reference: patent publication US20130324606A1, “Ester Derivatives of Bimatoprost Compositions and Methods” (ALLERGAN, INC., priority 2011, published 2013)

Legend:
[1] = microAmes mutagenesis screen; type: cell-based; details: with or without metabolic activation
Description: Cmpds IVa, IIIb, and IVb were subjected to the microAmes screen, as known in the art.

C57Black/6J mice = experiment: Piliation (hair regrowth) studies in mice; type: in vivo; details: mouse hair regrowth
Description: C57Black/6J, 7-week old female mice (n=10) were employed in piliation studies. Dorsal hair was shaved (area ˜2 cm×4 cm). Dosing of active agent was once per day (QD) by topical administration for 14 days. Observations were conducted for 42-days to determine onset of new hair growth and day of hair growth completion. Compounds were formulated as either a) 50% propylene glycol, 30% ethanol, 20% water, or b) the formulation of Formulation A described above. The experiments reported for FIGS. 4A-4B, 5A-5B, 6A-6B, 8A-8B, and 9A-9B were conducted using a vehicle with formulation of 50% propylene glycol, 30% ethanol, 20% water. The experiments reported for FIGS. 7A-7B were conducted using a vehicle of Formulation A described above.
For each of FIGS. 4A, 5A, 6A, 7A, 8A and 9A, the histograms depict the day of onset of hair growth. For each of FIGS. 4B, 5B, 6B, 7B, 8B and 9B, the histograms depict the day achieving full hair growth.

[2] = In vitro human skin penetration (Franz diffusion chamber); type: in vitro ADME; details: FIGS. 14A-14C, 6, 24, 48 hr
[3] = tested on: reconstructed human epidermis (RHE); experiment: In vitro dermal irritation screening in reconstructed human epidermis; type: cell-based; details: concentration 0.03%, Formulation A vehicle
Description: In vitro irritation screening assays were conducted for compounds described herein. Test system was the reconstructed human epidermis (RHE), as known in the art. Single dosing was employed, and endpoints were evaluated as a function of time up to 24-hrs. Endpoints were tissue viability and IL-1α release.
Test compounds included Cmpds IVa (0.03%), IIIb (0.03%), IVb (0.03%), bimatoprost (0.03%), minoxidil (5%, foam), and minoxidil (5%, solution). Administration of Cmpds IVa, IIIb, IVb and bimatoprost employed the vehicle of Formulation A. See Table 1 above. Administration of minoxidil employed minoxidil vehicle with formulation 20% H2O, 50% propylene glycol, and 30% ethanol.

mouse skin = experiment: Pathology assessment of mouse hair regrowth model; type: in vivo, mice; details: histology, 0.03% active, vehicle control still in growth phase
Description: Histological samples from test subjects employed in the studies described in Example 12 were obtained for pathology assessment.

[4] = In vitro human skin penetration (Franz diffusion chamber); type: in vitro ADME
Description: Test material: Dermatomed ex vivo human cadaver posterior trunk skin on 1.0 cm^2 Franz diffusion chamber as known in the art. Test size: 3 skin donors (obtained from New York Firefighters Skin Bank), 3 replicates per donor per formulation. Test formulations: 0.03% active agent (Cmpd IVa, Cmpd IIIb, Cmpd IVb) in Formulation A; control formulation: bimatoprost at 0.03% in Formulation A. Dosing regimen: receptor fluid at 2, 4, 24, and 48 hrs; SC/epidermis and dermis at 48 hrs. Sample analysis: LC/MS-MS to detect bimatoprost and Cmpds IVa, IIIb and IVb.

[5] = Pharmacokinetic assessment of mouse hair regrowth model; type: in vivo; details: mice, 0.03% dermal daily ~60 uL, all measured time points, LC/MS-MS
Description: Female C57BL/6J mice (n=2) were assayed per time point per treatment group. Treatment groups: (1) vehicle; (2) 0.03% Cmpd IVa; (3) 0.03% Cmpd IIIb; (4) 0.03% Cmpd IVb; (5) 0.03% bimatoprost. Treatment dosing: dermal daily application of ˜60 uL test compound solution. Blood and skin pharmacokinetic time points were obtained at day 1 (1, 4, 8 and 24-hrs post-dose); day 2 (24-hrs post-dose); day 14 (24-hrs post-dose); and day 42 (28 days post day 14 dose). Bioanalysis employed LC/MS-MS.

[6] = Formulation and stability studies; type: physicochemical; details: variations of Formulation A, 0.03% active, pH 4, 5, 6 and 7; 25, 40 and 60° C.; zero time and 80-days
Description: Stability over time of compounds disclosed herein was determined in formulation as a function of temperature and pH. Variations of Formulation A described herein were employed wherein the target concentration of active agent was 0.03%, and the pH was varied at pH 4, 5, 6 and 7. Temperatures of 25° C., 40° C. and 60° C. were maintained during the experiment. Samples were evaluated at zero time and 80-days.
Cmpds IVa, IIIb, and IVb for evaluated for stability.
FIGS. 1A-1B, 2A-2B, and 3A-3B depict histograms of relative concentrations of test compounds (arbitrary scale) at zero time or 80-days. FIG. 1A depicts a histogram of the stability profile of Cmpd IVa as a function of pH and temperature. FIG. 1B depicts a histogram of the formation of bimatoprost as a function of pH and temperature after 80-days for Cmpd IVa. FIG. 2A depicts a histogram of the stability profile of Cmpd IVb as a function of pH and temperature. FIG. 2B depicts a histogram of the formation of bimatoprost as a function of pH and temperature after 80-days for Cmpd IVb. FIG. 3A depicts a histogram of the stability profile of Cmpd IIIb as a function of pH and temperature. FIG. 3B depicts a histogram of the formation of bimatoprost as a function of pH and temperature after 80-days for Cmpd IIIb.

[7] = Compound distribution in mouse skin by MALDI-MS imaging; type: in vivo
Description: In order to determine the penetration, accumulation and/or differential distribution of bimatoprost and compounds disclosed herein upon dermal administration, MALDI-MS (matrix assisted laser desorption ionization mass spectroscopy) imaging was conducted on explanted samples of mouse skin after topical dermal administration.
MALDI-MS imaging was conducted on mouse skin strips after administration of bimatoprost or compound disclosed herein once daily for 3 days. Samples of mouse skin were recovered 4 hr after day-3 dosing of compound. Dermal administration was conducted with vehicle, 0.03% bimatoprost, 3% bimatoprost, 0.03% Cmpd IVa, and 3% Cmpd IVa.
FIG. 16A depicts a typical explanted sample of mouse skin for these studies, wherein Cmpd IVa was applied via dermal administration. FIG. 16B depicts the result of MALDI-MS imaging. The intensity of each pixel within FIG. 16B reflects the concentration of Cmpd IVa at the corresponding point in the image depicted in FIG. 16A. FIG. 16C depicts a representative mass spectrum, corresponding to the region of FIG. 16B indicated by the white circle within FIG. 16B. Accordingly, each pixel of the image of FIG. 16B has an associated mass spectrum, providing the amounts of bimatoprost or other administered compound or metabolite thereof.

- conversion to bimatoprost in the receptor chamber solution [2]: observed to convert to bimatoprost
- penetration flux relative to bimatoprost ([4]; 0.03% in Formulation A, FIG. 13B): greater than that for bimatoprost
- Percentage Dose Applied, Receptor Chamber Solution, Prodrug ([4]; 0.03% in Formulation A, Franz chamber, dosed compound): 4.3 Percentage Dose Applied
- Percentage Dose Applied, Upper ⅓ Dermis, Prodrug ([4]; 0.03% in Formulation A, dermis at 48 hrs, dosed compound): 3.8 Percentage Dose Applied
- conversion to bimatoprost in the SC/Epi/Dermis layers ([4]; FIG. 15A): converted to bimatoprost
- amount of active agent in the upper third of the dermis relative to bimatoprost ([4]; FIG. 15B): less than observed for bimatoprost
- level in the systemic circulation [5]: most undetectable
- stability in formulation [6]: stable in formulation
- detectability in mouse skin by MALDI-MS imaging ([7]; after topical dermal administration at 0.03%): detectable
- skin penetration of 3.0% compound compared with 3.0% bimatoprost ([7]; topical dermal administration, MALDI-MS): similar
Compound: CCNC(=O)CCC/C=C\C[C@@H]1[C@@H](/C=C/[C@H](CCc2ccccc2)OC(C)=O)[C@H](O)C[C@@H]1O [Cmpd IVa, 15-acetyl-bimatoprost]
- mutagenicity in microAmes screen [1]: not mutagenic
- effectiveness of 0.03% compound compared to 0.1% to 0.3% bimatoprost (C57Black/6J mice): approximately equally effective
- pharmacological efficacy relative to bimatoprost (C57Black/6J mice; vehicle 50% propylene glycol, 30% ethanol, 20% water): efficacy greater than bimatoprost
- pharmacological efficacy relative to bimatoprost (C57Black/6J mice; vehicle Formulation A): efficacy greater than bimatoprost
- potential for irritation of the human skin [3]: no indication of potential for irritation
- hair cycle phase at day-42 (mouse skin): returned to the resting phase
- skin penetration (cumulative amount in receptor solution) relative to bimatoprost ([4]; 0.03% in Formulation A, FIG. 13A): significantly greater than for bimatoprost
